Measured values published in the supplement of paper PMC10307832.

What was measured:
Assay in all cases: relative viability (nuclei count vs DMSO), 5 days (fraction); higher = more cells survive
NCI-H1651 = tested on: NCI-H1651
How it was run: (§1)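 Each reported value is a median over duplicate plates. It expresses relative viability: treated-well nuclei count divided by vehicle-well nuclei count. Lung cancer cell lines in 1536-well plates were dosed by pin tool a day after seeding, alone with one drug or with a fixed anchor-drug dose plus five library-drug doses (not always all listed) in √10 steps, and nuclei were counted after 5 days.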

HARA = tested on: HARA
How it was run: as §1

NCI-H1755 = tested on: NCI-H1755
How it was run: as §1

NCI-H2085 = tested on: NCI-H2085
How it was run: as §1

NCI-H3122 = tested on: NCI-H3122
How it was run: as §1

NCI-H2087 = tested on: NCI-H2087
How it was run: as §1

HCC-78 = tested on: HCC-78
How it was run: as §1

LU99A = tested on: LU99A
How it was run: as §1

PC-3 [JPC-3] = tested on: PC-3 [JPC-3]
How it was run: as §1

COR-L23 = tested on: COR-L23
How it was run: as §1

HCC-366 = tested on: HCC-366
How it was run: as §1

201T = tested on: 201T
How it was run: as §1

NCI-H358 = tested on: NCI-H358
How it was run: as §1

NCI-H1793 = tested on: NCI-H1793
How it was run: as §1

NCI-H322M = tested on: NCI-H322M
How it was run: as §1

NCI-H460 = tested on: NCI-H460
How it was run: as §1

NCI-H596 = tested on: NCI-H596
How it was run: as §1

H3255 = tested on: H3255
How it was run: as §1

NCI-H650 = tested on: NCI-H650
How it was run: as §1

SK-LU-1 = tested on: SK-LU-1
How it was run: as §1

NCI-H1650 = tested on: NCI-H1650
How it was run: as §1

NCI-H23 = tested on: NCI-H23
How it was run: as §1

NCI-H522 = tested on: NCI-H522
How it was run: as §1

## CN1CCN(CCOc2cc(OC3CCOCC3)c3c(Nc4c(Cl)ccc5c4OCO5)ncnc3c2)CC1 [Saracatinib] + CS(=O)(=O)N1CCN(Cc2cc3nc(-c4cccc5[nH]ncc45)nc(N4CCOCC4)c3s2)CC1 [Pictilisib] (partner 1 µM)
NCI-H1651; first compound 0.02 µM
  relative viability: 0.507
NCI-H1651; first compound 0.2 µM
  relative viability: 0.499
NCI-H1651; first compound 0.6325 µM
  relative viability: 0.563
NCI-H1651; first compound 2 µM
  relative viability: 0.5
HARA; first compound 0.02 µM
  relative viability: 0.37
HARA; first compound 0.6325 µM
  relative viability: 0.374
HARA; first compound 2 µM
  relative viability: 0.118
NCI-H1755; first compound 0.02 µM
  relative viability: 0.424
NCI-H1755; first compound 0.2 µM
  relative viability: 0.408
NCI-H1755; first compound 0.6325 µM
  relative viability: 0.431
NCI-H1755; first compound 2 µM
  relative viability: 0.26
NCI-H2085; first compound 0.02 µM
  relative viability: 0.474
NCI-H2085; first compound 0.2 µM
  relative viability: 0.345
NCI-H2085; first compound 0.6325 µM
  relative viability: 0.481
NCI-H2085; first compound 2 µM
  relative viability: 0.377
NCI-H3122; first compound 0.02 µM
  relative viability: 0.573
NCI-H3122; first compound 0.6325 µM
  relative viability: 0.586
NCI-H3122; first compound 2 µM
  relative viability: 0.454
NCI-H2087; first compound 0.02 µM
  relative viability: 0.963
NCI-H2087; first compound 0.2 µM
  relative viability: 0.567
NCI-H2087; first compound 0.6325 µM
  relative viability: 1.06
NCI-H2087; first compound 2 µM
  relative viability: 0.967
HCC-78; first compound 0.02 µM
  relative viability: 0.242
HCC-78; first compound 0.2 µM
  relative viability: 0.154
HCC-78; first compound 0.6325 µM
  relative viability: 0.178
HCC-78; first compound 2 µM
  relative viability: 0.21
LU99A; first compound 0.02 µM
  relative viability: 0.334
LU99A; first compound 0.2 µM
  relative viability: 0.259
LU99A; first compound 0.6325 µM
  relative viability: 0.309
LU99A; first compound 2 µM
  relative viability: 0.299
PC-3 [JPC-3]; first compound 0.02 µM
  relative viability: 0.782
PC-3 [JPC-3]; first compound 0.2 µM
  relative viability: 0.613
PC-3 [JPC-3]; first compound 0.6325 µM
  relative viability: 0.475
PC-3 [JPC-3]; first compound 2 µM
  relative viability: 0.395
COR-L23; first compound 0.02 µM
  relative viability: 0.721
COR-L23; first compound 0.2 µM
  relative viability: 0.568
COR-L23; first compound 0.6325 µM
  relative viability: 0.75
COR-L23; first compound 2 µM
  relative viability: 0.675
HCC-366; first compound 0.02 µM
  relative viability: 0.132
HCC-366; first compound 0.2 µM
  relative viability: 0.151
HCC-366; first compound 0.6325 µM
  relative viability: 0.107
HCC-366; first compound 2 µM
  relative viability: 0.103
201T; first compound 0.02 µM
  relative viability: 0.702
201T; first compound 0.2 µM
  relative viability: 0.627
201T; first compound 0.6325 µM
  relative viability: 0.603
201T; first compound 2 µM
  relative viability: 0.554
NCI-H358; first compound 0.02 µM
  relative viability: 0.348
NCI-H358; first compound 0.2 µM
  relative viability: 0.226
NCI-H358; first compound 0.6325 µM
  relative viability: 0.284
NCI-H358; first compound 2 µM
  relative viability: 0.257
NCI-H1793; first compound 0.02 µM
  relative viability: 0.345
NCI-H1793; first compound 0.2 µM
  relative viability: 0.213
NCI-H1793; first compound 0.6325 µM
  relative viability: 0.41
NCI-H1793; first compound 2 µM
  relative viability: 0.408
NCI-H322M; first compound 0.02 µM
  relative viability: 0.549
NCI-H322M; first compound 0.2 µM
  relative viability: 0.474
NCI-H322M; first compound 0.6325 µM
  relative viability: 0.496
NCI-H322M; first compound 2 µM
  relative viability: 0.296
NCI-H460; first compound 0.02 µM
  relative viability: 0.367
NCI-H460; first compound 0.6325 µM
  relative viability: 0.242
NCI-H460; first compound 2 µM
  relative viability: 0.286
NCI-H596; first compound 0.02 µM
  relative viability: 0.218
NCI-H596; first compound 0.2 µM
  relative viability: 0.429
NCI-H596; first compound 0.6325 µM
  relative viability: 0.435
NCI-H596; first compound 2 µM
  relative viability: 0.319
H3255; first compound 0.02 µM
  relative viability: 0.432
H3255; first compound 0.2 µM
  relative viability: 0.391
H3255; first compound 0.6325 µM
  relative viability: 0.352
H3255; first compound 2 µM
  relative viability: 0.156
NCI-H650; first compound 0.02 µM
  relative viability: 0.771
NCI-H650; first compound 0.2 µM
  relative viability: 0.837
NCI-H650; first compound 0.6325 µM
  relative viability: 0.871
NCI-H650; first compound 2 µM
  relative viability: 0.86
SK-LU-1; first compound 0.02 µM
  relative viability: 0.443
SK-LU-1; first compound 0.2 µM
  relative viability: 0.419
SK-LU-1; first compound 0.6325 µM
  relative viability: 0.388
SK-LU-1; first compound 2 µM
  relative viability: 0.226
NCI-H1650; first compound 0.02 µM
  relative viability: 0.626
NCI-H1650; first compound 0.2 µM
  relative viability: 0.468
NCI-H1650; first compound 0.6325 µM
  relative viability: 0.377
NCI-H1650; first compound 2 µM
  relative viability: 0.314
NCI-H23; first compound 0.02 µM
  relative viability: 0.517
NCI-H23; first compound 0.6325 µM
  relative viability: 0.424
NCI-H23; first compound 2 µM
  relative viability: 0.35

## CN1CCN(CCOc2cc(OC3CCOCC3)c3c(Nc4c(Cl)ccc5c4OCO5)ncnc3c2)CC1 [Saracatinib] + NC(=O)Nc1cc(-c2cccc(F)c2)sc1C(=O)N[C@H]1CCCNC1 [AZD7762] (partner 0.2 µM)
NCI-H1651; first compound 0.02 µM
  relative viability: 0.549
NCI-H1651; first compound 0.2 µM
  relative viability: 0.359
NCI-H1651; first compound 0.6325 µM
  relative viability: 0.514
NCI-H1651; first compound 2 µM
  relative viability: 0.436
HARA; first compound 0.02 µM
  relative viability: 0.413
HARA; first compound 0.2 µM
  relative viability: 0.345
HARA; first compound 0.6325 µM
  relative viability: 0.247
HARA; first compound 2 µM
  relative viability: 0.355
NCI-H1755; first compound 0.02 µM
  relative viability: 0.438
NCI-H1755; first compound 0.2 µM
  relative viability: 0.41
NCI-H1755; first compound 0.6325 µM
  relative viability: 0.465
NCI-H1755; first compound 2 µM
  relative viability: 0.372
NCI-H2085; first compound 0.02 µM
  relative viability: 1.06
NCI-H2085; first compound 0.2 µM
  relative viability: 0.864
NCI-H2085; first compound 0.6325 µM
  relative viability: 0.903
NCI-H2085; first compound 2 µM
  relative viability: 0.871
NCI-H3122; first compound 0.02 µM
  relative viability: 0.97
NCI-H3122; first compound 0.2 µM
  relative viability: 0.922
NCI-H3122; first compound 0.6325 µM
  relative viability: 0.889
NCI-H3122; first compound 2 µM
  relative viability: 0.698
NCI-H2087; first compound 0.02 µM
  relative viability: 1.33
NCI-H2087; first compound 0.2 µM
  relative viability: 1.13
NCI-H2087; first compound 0.6325 µM
  relative viability: 1.76
NCI-H2087; first compound 2 µM
  relative viability: 1.31
HCC-78; first compound 0.02 µM
  relative viability: 0.583
HCC-78; first compound 0.6325 µM
  relative viability: 0.774
HCC-78; first compound 2 µM
  relative viability: 0.421
LU99A; first compound 0.02 µM
  relative viability: 0.374
LU99A; first compound 0.2 µM
  relative viability: 0.279
LU99A; first compound 0.6325 µM
  relative viability: 0.31
LU99A; first compound 2 µM
  relative viability: 0.325
PC-3 [JPC-3]; first compound 0.02 µM
  relative viability: 0.859
PC-3 [JPC-3]; first compound 0.2 µM
  relative viability: 0.638
PC-3 [JPC-3]; first compound 0.6325 µM
  relative viability: 0.573
PC-3 [JPC-3]; first compound 2 µM
  relative viability: 0.448
HCC-366; first compound 0.02 µM
  relative viability: 0.215
HCC-366; first compound 0.2 µM
  relative viability: 0.0547
HCC-366; first compound 0.6325 µM
  relative viability: 0.216
HCC-366; first compound 2 µM
  relative viability: 0.139
201T; first compound 0.02 µM
  relative viability: 0.554
201T; first compound 0.2 µM
  relative viability: 0.446
201T; first compound 0.6325 µM
  relative viability: 0.623
201T; first compound 2 µM
  relative viability: 0.625
NCI-H358; first compound 0.02 µM
  relative viability: 0.668
NCI-H358; first compound 0.2 µM
  relative viability: 0.418
NCI-H358; first compound 0.6325 µM
  relative viability: 0.364
NCI-H358; first compound 2 µM
  relative viability: 0.318
NCI-H1793; first compound 0.02 µM
  relative viability: 0.304
NCI-H1793; first compound 0.2 µM
  relative viability: 0.233
NCI-H1793; first compound 0.6325 µM
  relative viability: 0.312
NCI-H1793; first compound 2 µM
  relative viability: 0.26
NCI-H522; first compound 0.02 µM
  relative viability: 0.961
NCI-H522; first compound 0.2 µM
  relative viability: 0.809
NCI-H522; first compound 0.6325 µM
  relative viability: 0.807
NCI-H522; first compound 2 µM
  relative viability: 0.822
NCI-H322M; first compound 0.02 µM
  relative viability: 0.593
NCI-H322M; first compound 0.2 µM
  relative viability: 0.498
NCI-H322M; first compound 0.6325 µM
  relative viability: 0.552
NCI-H322M; first compound 2 µM
  relative viability: 0.353
NCI-H460; first compound 0.02 µM
  relative viability: 0.732
NCI-H460; first compound 0.2 µM
  relative viability: 0.482
NCI-H460; first compound 0.6325 µM
  relative viability: 0.628
NCI-H460; first compound 2 µM
  relative viability: 0.596
NCI-H596; first compound 0.02 µM
  relative viability: 1.12
NCI-H596; first compound 0.2 µM
  relative viability: 1.05
NCI-H596; first compound 0.6325 µM
  relative viability: 1.14
NCI-H596; first compound 2 µM
  relative viability: 0.852
H3255; first compound 0.02 µM
  relative viability: 0.959
H3255; first compound 0.2 µM
  relative viability: 0.917
H3255; first compound 0.6325 µM
  relative viability: 0.966
H3255; first compound 2 µM
  relative viability: 0.346
NCI-H650; first compound 0.02 µM
  relative viability: 0.984
NCI-H650; first compound 0.2 µM
  relative viability: 1.04
NCI-H650; first compound 0.6325 µM
  relative viability: 0.98
NCI-H650; first compound 2 µM
  relative viability: 0.997
NCI-H23; first compound 0.02 µM
  relative viability: 0.243
NCI-H23; first compound 0.6325 µM
  relative viability: 0.287
NCI-H23; first compound 2 µM
  relative viability: 0.27
